Reference: PubChem BioAssay AID1963847 (Molecular Pharmacology Branch, DTP, NCI, 2024)

System: 415267-285-R-J2-PDC complex spheroid viability
Assay: Anticancer human tumor 415267-285-R-J2-PDC patient-derived breast carcinoma cell line growth inhibition [POLQ]
Conditions: for IC50: curve of first compound; for viability, T/C: stronger effect = lower value
Outline: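 Growth inhibition in 3D: complex spheroids (tumor PDC, HUVEC, MSC) treated with POLQ inhibitor combinations; where Cmax unknown, highest tested concentration 10 microM, except SN-38 at 1 microM.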

[1] = second compound 0.0316 µM, first compound 0.0316 µM
[2] = second compound 0.0316 µM, first compound 0.1 µM
[3] = second compound 0.0316 µM, first compound 0.316 µM
[4] = second compound 0.0316 µM, first compound 1 µM
[5] = second compound 0.0316 µM, first compound 3.16 µM
[6] = second compound 0.0316 µM, first compound 10 µM
[7] = second compound 0.1 µM, first compound 0.0316 µM
[8] = second compound 0.1 µM, first compound 0.1 µM
[9] = second compound 0.1 µM, first compound 0.316 µM
[10] = second compound 0.1 µM, first compound 1 µM
[11] = second compound 0.1 µM, first compound 3.16 µM
[12] = second compound 0.1 µM, first compound 10 µM
[13] = second compound 0.316 µM, first compound 0.0316 µM
[14] = second compound 0.316 µM, first compound 0.1 µM
[15] = second compound 0.316 µM, first compound 0.316 µM
[16] = second compound 0.316 µM, first compound 1 µM
[17] = second compound 0.316 µM, first compound 3.16 µM
[18] = second compound 0.316 µM, first compound 10 µM
[19] = second compound 1 µM, first compound 0.0316 µM
[20] = second compound 1 µM, first compound 0.1 µM
[21] = second compound 1 µM, first compound 0.316 µM
[22] = second compound 1 µM, first compound 1 µM
[23] = second compound 1 µM, first compound 3.16 µM
[24] = second compound 1 µM, first compound 10 µM
[25] = second compound 3.16 µM, first compound 0.0316 µM
[26] = second compound 3.16 µM, first compound 0.1 µM
[27] = second compound 3.16 µM, first compound 0.316 µM
[28] = second compound 3.16 µM, first compound 1 µM
[29] = second compound 3.16 µM, first compound 3.16 µM
[30] = second compound 3.16 µM, first compound 10 µM
[31] = second compound 10 µM, first compound 0.0316 µM
[32] = second compound 10 µM, first compound 0.1 µM
[33] = second compound 10 µM, first compound 0.316 µM
[34] = second compound 10 µM, first compound 1 µM
[35] = second compound 10 µM, first compound 3.16 µM
[36] = second compound 10 µM, first compound 10 µM
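Also: spheroids exposed to compounds for one week before readout.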
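For viability, T/C in this document: luminescence used as stand-in measure of viable cells; 100% = DMSO vehicle control viability.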

CNCc1ccc(-c2[nH]c3cc(F)cc4c3c2CCNC4=O)cc1 + Nc1ccc(C#CCN(C(=O)Cc2ncc(C(F)(F)F)cc2C(F)(F)F)c2ccc(F)cc2)nn1
IC50 (second compound 0.0316 µM): > 10 µM | IC50 (second compound 0.1 µM): > 10 µM | IC50 (second compound 0.316 µM): > 10 µM | IC50 (second compound 1 µM): > 10 µM | IC50 (second compound 3.16 µM): > 10 µM | IC50 (second compound 10 µM): > 10 µM | viability, T/C [1]: 98.9% | viability, T/C [2]: 107% | viability, T/C [3]: 91.1% | viability, T/C [4]: 84.6% | viability, T/C [5]: 91.9% | viability, T/C [6]: 103% | viability, T/C [7]: 89.7% | viability, T/C [8]: 105% | viability, T/C [9]: 93.2% | viability, T/C [10]: 87.9% | viability, T/C [11]: 101% | viability, T/C [12]: 102% | viability, T/C [13]: 98.9% | viability, T/C [14]: 93.2% | viability, T/C [15]: 91.4% | viability, T/C [16]: 106% | viability, T/C [17]: 94.4% | viability, T/C [18]: 108% | viability, T/C [19]: 97.3% | viability, T/C [20]: 98.7% | viability, T/C [21]: 92.9% | viability, T/C [22]: 98.6% | viability, T/C [23]: 106% | viability, T/C [24]: 118% | viability, T/C [25]: 91.1% | viability, T/C [26]: 100% | viability, T/C [27]: 94% | viability, T/C [28]: 96.5% | viability, T/C [29]: 109% | viability, T/C [30]: 107% | viability, T/C [31]: 101% | viability, T/C [32]: 97.6% | viability, T/C [33]: 105% | viability, T/C [34]: 105% | viability, T/C [35]: 113% | viability, T/C [36]: 110%

COc1ccc([C@@H](O)c2cc(-c3ncnc4cc(N5CCOCC5)ccc34)c(F)cc2Cl)nn1 + Nc1ccc(C#CCN(C(=O)Cc2ncc(C(F)(F)F)cc2C(F)(F)F)c2ccc(F)cc2)nn1
IC50 (second compound 0.0316 µM): > 10 µM | IC50 (second compound 0.1 µM): > 10 µM | IC50 (second compound 0.316 µM): > 10 µM | IC50 (second compound 1 µM): > 10 µM | IC50 (second compound 3.16 µM): > 10 µM | IC50 (second compound 10 µM): > 10 µM | viability, T/C [1]: 94.4% | viability, T/C [2]: 99.9% | viability, T/C [3]: 100% | viability, T/C [4]: 106% | viability, T/C [5]: 93% | viability, T/C [6]: 58.2% | viability, T/C [7]: 108% | viability, T/C [8]: 109% | viability, T/C [9]: 84.7% | viability, T/C [10]: 92.4% | viability, T/C [11]: 95.2% | viability, T/C [12]: 53.2% | viability, T/C [13]: 107% | viability, T/C [14]: 103% | viability, T/C [15]: 107% | viability, T/C [16]: 110% | viability, T/C [17]: 84.4% | viability, T/C [18]: 58% | viability, T/C [19]: 98.7% | viability, T/C [20]: 88% | viability, T/C [21]: 104% | viability, T/C [22]: 102% | viability, T/C [23]: 91.2% | viability, T/C [24]: 51.6% | viability, T/C [25]: 102% | viability, T/C [26]: 104% | viability, T/C [27]: 108% | viability, T/C [28]: 106% | viability, T/C [29]: 93.3% | viability, T/C [30]: 69.1% | viability, T/C [31]: 105% | viability, T/C [32]: 107% | viability, T/C [33]: 102% | viability, T/C [34]: 102% | viability, T/C [35]: 89.3% | viability, T/C [36]: 64.5%

COc1cccc(OCCCN)c1-c1cc(Nc2cnc(C#N)cn2)n[nH]1 + Nc1ccc(C#CCN(C(=O)Cc2ncc(C(F)(F)F)cc2C(F)(F)F)c2ccc(F)cc2)nn1
IC50 (second compound 0.0316 µM): 0.00716 µM | IC50 (second compound 0.1 µM): 0.00619 µM | IC50 (second compound 0.316 µM): 0.00672 µM | IC50 (second compound 1 µM): 0.00596 µM | IC50 (second compound 3.16 µM): 0.00577 µM | IC50 (second compound 10 µM): 0.0059 µM | viability, T/C (second compound 0.0316 µM, first compound 0.00316 µM): 99% | viability, T/C (second compound 0.0316 µM, first compound 0.01 µM): 29.9% | viability, T/C [1]: 6.2% | viability, T/C [2]: 5.95% | viability, T/C [3]: 4.32% | viability, T/C [4]: 4.9% | viability, T/C (second compound 0.1 µM, first compound 0.00316 µM): 94.9% | viability, T/C (second compound 0.1 µM, first compound 0.01 µM): 18% | viability, T/C [7]: 5.46% | viability, T/C [8]: 5.78% | viability, T/C [9]: 5.23% | viability, T/C [10]: 3.98% | viability, T/C (second compound 0.316 µM, first compound 0.00316 µM): 119% | viability, T/C (second compound 0.316 µM, first compound 0.01 µM): 13.8% | viability, T/C [13]: 5.29% | viability, T/C [14]: 4.56% | viability, T/C [15]: 4.96% | viability, T/C [16]: 4.07% | viability, T/C (second compound 1 µM, first compound 0.00316 µM): 101% | viability, T/C (second compound 1 µM, first compound 0.01 µM): 8.35% | viability, T/C [19]: 5.83% | viability, T/C [20]: 5.25% | viability, T/C [21]: 5.41% | viability, T/C [22]: 4.11% | viability, T/C (second compound 3.16 µM, first compound 0.00316 µM): 94.9% | viability, T/C (second compound 3.16 µM, first compound 0.01 µM): 9.02% | viability, T/C [25]: 5.49% | viability, T/C [26]: 5.19% | viability, T/C [27]: 6.6% | viability, T/C [28]: 4.85% | viability, T/C (second compound 10 µM, first compound 0.00316 µM): 100% | viability, T/C (second compound 10 µM, first compound 0.01 µM): 7.29% | viability, T/C [31]: 6.73% | viability, T/C [32]: 5.13% | viability, T/C [33]: 4.64% | viability, T/C [34]: 4.87%

O=C(c1cc(Cc2n[nH]c(=O)c3ccccc23)ccc1F)N1CCN(C(=O)C2CC2)CC1 + Nc1ccc(C#CCN(C(=O)Cc2ncc(C(F)(F)F)cc2C(F)(F)F)c2ccc(F)cc2)nn1
IC50 (second compound 0.0316 µM): > 10 µM | IC50 (second compound 0.1 µM): > 10 µM | IC50 (second compound 0.316 µM): > 10 µM | IC50 (second compound 1 µM): > 10 µM | IC50 (second compound 3.16 µM): > 10 µM | IC50 (second compound 10 µM): > 10 µM | viability, T/C [1]: 100% | viability, T/C [2]: 106% | viability, T/C [3]: 106% | viability, T/C [4]: 97.5% | viability, T/C [5]: 96% | viability, T/C [6]: 99% | viability, T/C [7]: 98.4% | viability, T/C [8]: 103% | viability, T/C [9]: 109% | viability, T/C [10]: 97.2% | viability, T/C [11]: 108% | viability, T/C [12]: 90.8% | viability, T/C [13]: 106% | viability, T/C [14]: 115% | viability, T/C [15]: 101% | viability, T/C [16]: 114% | viability, T/C [17]: 101% | viability, T/C [18]: 105% | viability, T/C [19]: 108% | viability, T/C [20]: 109% | viability, T/C [21]: 108% | viability, T/C [22]: 98.5% | viability, T/C [23]: 110% | viability, T/C [24]: 108% | viability, T/C [25]: 101% | viability, T/C [26]: 101% | viability, T/C [27]: 100% | viability, T/C [28]: 101% | viability, T/C [29]: 105% | viability, T/C [30]: 115% | viability, T/C [31]: 98.9% | viability, T/C [32]: 96.9% | viability, T/C [33]: 113% | viability, T/C [34]: 107% | viability, T/C [35]: 97.8% | viability, T/C [36]: 102%
